Experimental data published in patent US20160058751A1, “COMPOSITION AND METHOD FOR TREATING CANCER” (CELLWORKS GROUP, INC., priority 2013, published 2016).
Read-outs that look alike come from different tables or passages of the source.

How the values were obtained:
CaCo-2 = details: cited from earlier work
[1] = multiple species; cited from earlier work
[2] = tested on: H1650 human lung cancer cell line; experiment: CellTiter 96 Aqueous One relative growth assay; type: cell-based; details: for cell viability (FIG. 85) / cell viability (FIG. 91): ARQ-197 up to 3 μM; for cell viability (FIG. 85) / cell viability (FIG. 72): Atorvastatin up to 40 μM; for cell viability (FIG. 91) / cell viability (FIG. 79): BMS-303141 up to 20 μM; for cell viability (FIG. 72): Sorafenib up to 5 μM; for relative growth percentage: BMS-303141 20 μM, alone or both; for cell viability (FIG. 79): Sorafenib 3 μM and 5 μM
[3] = cited from earlier work
[4] = tested on: HCT116 human colon cancer cell line; experiment: CellTiter 96 Aqueous One relative growth assay; details: for cell viability (FIG. 86): ARQ-197 up to 3 μM; for cell viability (FIG. 86) / cell viability (FIG. 73): Atorvastatin up to 40 μM; for cell viability (FIG. 73): Sorafenib up to 5 μM; for cell viability (FIG. 80): BMS-303141 up to 20 μM, Sorafenib 3 μM and 5 μM
[5] = tested on: SW48 human colon cancer cell line; experiment: CellTiter 96 Aqueous One relative growth assay; type: cell-based; details: for cell viability (FIG. 87): ARQ-197 up to 3 μM, Atorvastatin up to 40 μM; for cell viability (FIG. 75): Sorafenib up to 5 μM, Atorvastatin up to 10 μM; for cell viability (FIG. 81): BMS-303141 up to 20 μM, Sorafenib 3 μM and 5 μM
From the text: The SW48 human colon cancer cell line was procured from ATCC (American Type Culture Collection, Manassas, Va.).

[6] = tested on: A549 human lung cancer cell line; experiment: CellTiter 96 Aqueous One relative growth assay; type: cell-based; details: for cell viability (FIG. 84) / cell viability (FIG. 90): ARQ-197 up to 3 μM; for cell viability (FIG. 84) / cell viability (FIG. 71): Atorvastatin up to 40 μM; for cell viability (FIG. 90) / cell viability (FIG. 78): BMS-303141 up to 20 μM; for cell viability (FIG. 71): Sorafenib up to 5 μM; for relative growth percentage: BMS-303141 20 μM, alone or both; for cell viability (FIG. 78): Sorafenib 3 μM and 5 μM
[7] = in vivo, cited from earlier work
[8] = cited from earlier work; remark: listed apart in the source
[9] = XALKORI 250 mg twice daily, cited from earlier work
ATP citrate lyase = molecular target: T1, ATP citrate lyase (Homo sapiens, UniProt P53396); details: cited from earlier work
T1 sequence (P53396 1-1101): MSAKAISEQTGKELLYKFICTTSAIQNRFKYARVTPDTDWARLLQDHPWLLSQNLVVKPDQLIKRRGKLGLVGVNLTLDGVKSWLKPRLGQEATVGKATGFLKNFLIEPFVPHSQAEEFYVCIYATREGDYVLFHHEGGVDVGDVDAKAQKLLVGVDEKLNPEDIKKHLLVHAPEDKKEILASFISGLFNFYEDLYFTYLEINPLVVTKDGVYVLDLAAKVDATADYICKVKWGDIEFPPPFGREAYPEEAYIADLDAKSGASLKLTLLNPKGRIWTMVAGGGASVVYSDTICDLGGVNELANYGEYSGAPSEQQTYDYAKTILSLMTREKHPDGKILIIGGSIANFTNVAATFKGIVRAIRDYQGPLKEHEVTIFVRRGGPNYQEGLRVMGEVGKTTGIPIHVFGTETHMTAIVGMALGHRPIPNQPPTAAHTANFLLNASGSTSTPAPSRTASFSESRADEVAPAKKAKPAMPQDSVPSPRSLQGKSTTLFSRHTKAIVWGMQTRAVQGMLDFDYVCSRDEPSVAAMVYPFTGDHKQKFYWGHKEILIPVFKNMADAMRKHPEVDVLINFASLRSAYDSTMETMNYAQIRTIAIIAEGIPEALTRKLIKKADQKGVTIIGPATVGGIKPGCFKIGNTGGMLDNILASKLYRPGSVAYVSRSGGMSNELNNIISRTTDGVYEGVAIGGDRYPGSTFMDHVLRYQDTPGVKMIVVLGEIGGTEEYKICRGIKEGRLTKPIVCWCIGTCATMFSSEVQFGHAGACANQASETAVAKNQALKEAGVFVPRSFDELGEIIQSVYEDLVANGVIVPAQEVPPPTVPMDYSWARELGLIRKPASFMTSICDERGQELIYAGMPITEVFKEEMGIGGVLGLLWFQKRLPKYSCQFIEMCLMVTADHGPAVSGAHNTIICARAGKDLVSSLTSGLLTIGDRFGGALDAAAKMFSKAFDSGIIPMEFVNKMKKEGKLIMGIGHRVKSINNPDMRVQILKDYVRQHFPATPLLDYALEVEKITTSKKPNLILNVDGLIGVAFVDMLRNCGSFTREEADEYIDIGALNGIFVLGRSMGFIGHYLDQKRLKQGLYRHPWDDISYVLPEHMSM

[10] = rats; cited from earlier work
Hep G2 cells = details: dose-related; cited from earlier work
[11] = in vivo; cited from earlier work
[12] = tested on: CaCo-2 human colon cancer cell line; experiment: CellTiter 96 Aqueous One relative growth assay; type: cell-based; details: Sorafenib up to 5 μM, Atorvastatin up to 40 μM
HCT116 xenograft = experiment: mouse xenograft model of HCT116
CAPAN1 xenograft = experiment: mouse xenograft model of CAPAN1
[13] = cited from earlier work; remark: listed apart in the source
[14] = cited from earlier work; remark: listed apart in the source
[15] = single 250 mg radiolabeled dose, healthy subjects
[16] = single 250 mg radiolabeled dose
[17] = oral 100 mg solution formulation

Structure (SMILES): O=C1NC(=O)[C@@H](c2cn3c4c(cccc24)CCC3)[C@@H]1c1c[nH]c2ccccc12 [ARQ-197, (3R,4R)-3-(5,6-dihydro-4H-pyrrolo[3,2,1-ij]quinolin-1-yl)-4-(1H-indol-3-yl)pyrrolidine-2,5-dione]
- permeability (CaCo-2 flux data) (CaCo-2): good permeability
- oral bioavailability [1]: greater than 20%
- cell viability (FIG. 85) [2]: negligible effect
- cell viability (FIG. 91) [2]: minor decrease
- mean terminal half-life (t1/2), tivantinib in plasma [3]: 11.7 h
- median time to maximal concentration (tmax), tivantinib in plasma [3]: 4 h
- cell viability (FIG. 86) [4]: small decrease
- cell viability (FIG. 87) [5]: most pronounced
- cell viability (FIG. 84) [6]: a decrease
- cell viability (FIG. 90) [6]: minor decrease

Structure (SMILES): CC(C)c1c(C(=O)Nc2ccccc2)c(-c2ccccc2)c(-c2ccc(F)cc2)n1CC[C@@H](O)C[C@@H](O)CC(=O)O [Atorvastatin, (3R,5R)-7-[2-(4-fluorophenyl)-3-phenyl-4-(phenylcarbamoyl)-5-propan-2-ylpyrrol-1-yl]-3,5-dihydroxyheptanoic acid]
- cell viability (FIG. 85) [2]: negligible effect
- cell viability (FIG. 72) [2]: negligible decrease
- orally administered dose recovered in urine ([7]; po): Less than 2%
- circulating inhibitory activity for HMG-CoA reductase attributed to active metabolites [7]: Approximately 70%
- systemic availability of the HMG-CoA reductase inhibitory activity [7]: approximately 30%
- cell viability (FIG. 86) [4]: small decrease
- cell viability (FIG. 73) [4]: insignificant decrease
- cell viability (FIG. 87) [5]: a decrease
- cell viability (FIG. 75) [5]: negligible effect
- cell viability (FIG. 84) [6]: a decrease
- cell viability (FIG. 71) [6]: negligible decrease

Structure (SMILES): COc1ccc(-c2ccccc2)cc1NS(=O)(=O)c1cc(Cl)cc(Cl)c1O [BMS-303141, 3,5-Dichloro-2-hydroxy-N-(4-methoxy-[1,1′-biphenyl]-3-yl)-benzenesulfonamide]
- relative growth percentage ([2]; ARQ-197 3 μM, about 66 hours): about 76%
- cell viability (FIG. 91) [2]: minor decrease
- cell viability (FIG. 79) [2]: minor decrease
- relative growth percentage ([2]; Sorafenib 5 μM, about 68 hours): about 76%
- cell viability (FIG. 80) [4]: a decrease
- relative growth percentage ([4]; Sorafenib 5 μM, BMS-303141 20 μM, alone or both, about 66 hours): about 54%
- cell viability (FIG. 81) [5]: minimal decrease
- relative growth percentage ([5]; Sorafenib 5 μM, BMS-303141 20 μM, alone or both, about 68 hours): about 78%
- relative growth percentage ([6]; ARQ-197 3 μM, about 66 hours): about 105%
- cell viability (FIG. 90) [6]: minor decrease
- cell viability (FIG. 78) [6]: negligible decrease
- relative growth percentage ([6]; Sorafenib 5 μM, about 68 hours): about 105%

Structure (SMILES): C[C@@H](Oc1cc(-c2cnn(C3CCNCC3)c2)cnc1N)c1c(Cl)ccc(F)c1Cl [Crizotinib, 3-[(1R)-1-(2,6-dichloro-3-fluorophenyl)ethoxy]-5-(1-piperidin-4-ylpyrazol-4-yl)pyridin-2-amine]
- time to steady state ([8]; 250 mg twice daily): ≤ 15 days
- reduction of AUCinf by a high-fat meal ([8]; high-fat meal): approximately 14%
- reduction of Cmax by a high-fat meal ([8]; high-fat meal): approximately 14%
- mean absolute bioavailability ([8]; single 250 mg oral dose): 43%
- mean apparent clearance (CL/F) ([8]; single 250 mg oral dose): 100 L/h
- administered dose recovered in feces [8, 15]: 63%
- administered dose recovered in urine [8, 15]: 22%
- unchanged crizotinib in feces, of administered dose [8, 16]: approximately 53%
- unchanged crizotinib in urine, of administered dose [8, 16]: ~2.3%
- mean apparent clearance (CL/F) ([8]; steady state after 250 mg twice daily): 60 L/h
- patients with QTcF greater than or equal to 500 msec ([9]; 16 of 1167 patients): 1.4%
- patients with increase from baseline QTcF greater than or equal to 60 msec ([9]; 51 of 1136 patients): 4.4%

Structure (SMILES): O=C(O)C[C@@](O)(C[C@@H](O)CCCCCCc1ccc(Cl)cc1Cl)C(=O)O [SB-201076, (2S)-2-[(2S)-8-(2,4-dichlorophenyl)-2-hydroxyoctyl]-2-hydroxybutanedioic Acid]
- Ki (ATP citrate lyase; competitive inhibitor, humans): 1000 nM

Structure (SMILES): O=C(O)C[C@](O)(C[C@@H](O)CCCCCCc1ccc(Cl)cc1Cl)C(=O)O [SB-204990, (2R)-2-[(2S)-8-(2,4-dichlorophenyl)-2-hydroxyoctyl]-2-hydroxybutanedioic Acid]
- direct inhibition of ATP citrate-lyase (ATP citrate lyase): does not inhibit
- inhibition of cholesterol synthesis [10]: 76%
- inhibition of fatty acid synthesis [10]: 39%
- inhibition of cholesterol synthesis (Hep G2 cells): up to 91%
- inhibition of fatty acid synthesis (Hep G2 cells): ≤ 82%

Structure (SMILES): CCC(C)(C)C(=O)O[C@H]1C[C@@H](C)C=C2C=C[C@H](C)[C@H](CC[C@@H]3C[C@@H](O)CC(=O)O3)[C@H]21 [Simvastatin, [(1S,3R,7S,8S,8aR)-8-[2-[(2R,4R)-4-hydroxy-6-oxooxan-2-yl]ethyl]-3,7-dimethyl-1,2,3,7,8,8a-hexahydronaphthalen-1-yl]2,2-dimethylbutanoate]
- Half-life [11]: 3 h

Structure (SMILES): CNC(=O)c1cc(Oc2ccc(NC(=O)Nc3ccc(Cl)c(C(F)(F)F)c3)cc2)ccn1 [Sorafenib, 4-[4-[[4-chloro-3-(trifluoromethyl)phenyl]carbamoylamino]phenoxy]-N-methylpyridine-2-carboxamide]
- cell viability (FIG. 74) [12]: negligible effect
- body weight (HCT116 xenograft): not significantly affected
- survival (Kaplan-Meier survival curve) (HCT116 xenograft): prolonged survival rates
- inhibition of tumor volume / tumor growth (HCT116 xenograft; at 19 days): 16%
- body weight (CAPAN1 xenograft): not significantly affected
- survival (Kaplan-Meier survival curve) (CAPAN1 xenograft): slightly prolonged survival rates
- cell viability (FIG. 79) [2]: minor decrease
- cell viability (FIG. 72) [2]: negligible decrease
- bioavailability reduced by ([13]; high-fat meal compared to fasted state): about 29%
- Half-life ([13]; in vivo): 25 to 48 h
- dose excreted in feces [13, 17]: 77%
- dose excreted in urine as glucuronidated metabolites [13, 17]: 19%
- dose recovered ([13]; oral 100 mg solution formulation, within 14 days): 96%
- share of the circulating analytes in plasma at steady-state [13]: 70-85%
- cell viability (FIG. 80) [4]: a decrease
- cell viability (FIG. 73) [4]: insignificant decrease
- cell viability (FIG. 81) [5]: minimal decrease
- cell viability (FIG. 75) [5]: negligible effect
- cell viability (FIG. 78) [6]: negligible decrease
- cell viability (FIG. 71) [6]: negligible decrease

Structure (SMILES): Cn1cncc1[C@@](N)(c1ccc(Cl)cc1)c1ccc2c(c1)c(-c1cccc(Cl)c1)cc(=O)n2C [Tipifamib, 6-[(R)-amino-(4-chlorophenyl)-(3-methylimidazol-4-yl)methyl]-4-(3-chlorophenyl)-1-methylquinolin-2-one]
- decrease in relative growth ([4]; Tipifamib 3 μM, Crizotinib 8 μM, alone or combined, about 66 hours): ~22%
- absolute oral bioavailability ([14]; healthy volunteers, fed conditions): 34%
- Half-life ([14]; in vivo): 2 to 5 h
- urinary excretion of unchanged drug or its metabolites, of total dose ([14]; in vivo): 13.7%
- time to maximum plasma concentrations ([14]; oral administration): two to three
- decrease in clearance ([14]; two-fold increase in bilirubin concentration): 6.9%

Structure (SMILES): [O-][n+]1ccccc1 [pyridine N-oxide]
- share of the circulating analytes in plasma at steady-state [13]: 9-16%
